The test addresses histamine H4 receptor (Homo sapiens, UniProt Q9H3N8). The experiment in a line: In vitro histamine H4 potency in FLIPR (Ca2+ flux, HEK-293 cells coexpressing Gαqi5). The class given is cell-based. Set-up: expressed in transfected cells. The note with it: Kb for antagonists and inverse agonists, EC50 for partial agonists. The text has this:
There are many methods available to show the effectiveness of compounds as histamine H4 receptor ligands. Histamine H4 receptors from mammalian species have been cloned. Methods to clone, express, and assess the potency and functional activity of such cloned genes are well known to those skilled in the art of molecular biology. […] Before testing, cells are loaded with a Ca^+2 sensitive fluorescent dye, in this case Fluo-4. In the case of partial agonist or agonist ligands, addition of compound to the cells leads to the increase in intracellular Ca^+2 which is detected by FLIPR (Fluorescence Imaging Plate Reader; Molecular Devices, Sunnyvale, Calif.) technology. […] The fluorescence intensities measured before addition of the test compound are subtracted from the fluorescence intensities at later time points. Peak response values determined at each concentration of ligand are expressed as a percentage of the response obtained with the full agonist histamine. Concentration versus response data are analyzed to obtain compound potency as Kb values for antagonists and inverse agonists and as EC50 values for partial agonists.
In general terms: A change in cytosolic calcium serves as a functional read-out for many receptors and channels.

histamine H4 receptor, sequence (Q9H3N8 whole entry): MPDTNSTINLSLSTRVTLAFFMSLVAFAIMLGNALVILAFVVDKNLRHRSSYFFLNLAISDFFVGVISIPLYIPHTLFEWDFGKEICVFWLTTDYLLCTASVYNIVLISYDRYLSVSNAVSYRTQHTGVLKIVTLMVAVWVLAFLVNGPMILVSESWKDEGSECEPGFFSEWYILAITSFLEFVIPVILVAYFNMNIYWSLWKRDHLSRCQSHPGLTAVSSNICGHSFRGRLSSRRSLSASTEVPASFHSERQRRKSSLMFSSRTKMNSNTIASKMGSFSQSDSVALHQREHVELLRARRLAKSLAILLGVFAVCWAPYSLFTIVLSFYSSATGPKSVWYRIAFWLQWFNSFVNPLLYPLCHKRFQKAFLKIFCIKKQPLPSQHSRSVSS

On to `Nc1nc2c(c(N3CCNCC3)n1)CCCCCc1ccccc1-2` [Example 21, 4-Piperazin-1-yl-6,7,8,9-tetrahydro-5H-1,3-diaza-dibenzo[a,c]cyclononen-2-ylamine], for which the Potency came to 5623 nM.

As for `CC1Cc2c(nc(N)nc2N2CCNCC2)-c2ccccc21` (stereo not drawn) [Example 4, 6-Methyl-4-piperazin-1-yl-5,6-dihydro-benzo[h]quinazolin-2-ylamine], the Potency was 398 nM.

Consider `CC(=O)Nc1cccc2c1-c1nc(N)nc(N3CCNCC3)c1CCC2` [Example 132, N-(2-Amino-4-piperazin-1-yl-6,7-dihydro-H-benzo[6,7]cyclohepta[1,2-d]pyrimidin-11-yl)-acetamide], for which the Potency is listed as 1096 nM.

`Nc1nc2c(c(N3CC[C@@H]4CNC[C@@H]43)n1)CCCc1ccccc1-2` [Example 19, 4-((3aR,6aR)-Hexahydro-pyrrolo[3,4-b]pyrrol-1-yl)-6,7-dihydro-5H-benzo[6,7]cyclohepta[1,2-d]pyrimidin-2-ylamine]: the Potency is listed as 603 nM.

Compound `CN1CC2CC(C1)N(c1nc(N)nc3c1CCCc1ccccc1-3)C2` (stereo not drawn) [Example 86, 4-(3-Methyl-3,6-diaza-bicyclo[3.2.1]oct-6-yl)-6,7-dihydro-5H-benzo[6,7]cyclohepta[1,2-d]pyrimidin-2-ylamine] registered a Potency of 891 nM.

Compound `Nc1nc2c(c(N3CC[C@H]4CNC[C@H]43)n1)CCCCCc1ccccc1-2` [Example 27, 4-((3aS,6aS)-Hexahydro-pyrrolo[3,4-b]pyrrol-1-yl)-6,7,8,9-tetrahydro-5H-1,3-diaza-dibenzo[a,c]cyclononen-2-ylamine] returned a Potency of 16596 nM.

The compound `CN[C@@H]1CCN(c2nc(N)nc3c2CCOc2ccc(OC)cc2-3)C1` [Example 47, 10-methoxy-4-[(3R)-3-(methylamino)pyrrolidin-1-yl]-5,6-dihydro[1]benzoxepino[5,4-d]pyrimidin-2-amine] registered a Potency of 912 nM.

As to `CN1CCN(c2nc(N)nc3c2CCc2ccccc2-3)CC1` [Example 42, 4-(4-Methyl-piperazin-1-yl)-5,6-dihydro-benzo[h]quinazolin-2-ylamine], the Potency is recorded as 13 nM.

Compound `Nc1nc2c(c(N3CCC4(CCNC4)CC3)n1)CCCc1ccccc1-2` [Example 60, 4-(2,8-diazaspiro[4.5]dec-8-yl)-6,7-dihydro-5H-benzo[6,7]cyclohepta[1,2-d]pyrimidin-2-amine] returned a Potency of 724 nM.

`Nc1nc2c(c(N3CCCNCCC3)n1)CCCc1ccccc1-2` [Example 61, 4-(1,5-diazocan-1-yl)-6,7-dihydro-5H-benzo[6,7]cyclohepta[2-d]pyrimidin-2-amine] returned a Potency of 8.7 nM.

`Nc1nc2c(c(N3CC4CCCNC4C3)n1)CCOc1cc(-c3ccccc3)ccc1-2` (stereo not drawn) [Example 105, 4-Octahydro-pyrrolo[3,4-b]pyridin-6-yl-9-phenyl-5,6-dihydro-7-oxa-1,3-diaza-dibenzo[a,c]cyclohepten-2-ylamine] returned a Potency of 83 nM.

For `CNC1CN(c2nc(N)nc3c2CCS(=O)(=O)c2ccccc2-3)C1` [Example 38, 4-(3-Methylamino-azetidin-1-yl)-7,7-dioxo-6,7-dihydro-5H-7λ6-thia-1,3-diaza-dibenzo[a,c]cyclohepten-2-ylamine], the Potency worked out at 5754 nM.

In the case of `CN1CCN(c2nc(N)nc3c2OCc2ccccc2-3)CC1` [Example 41, 1-(4-Methyl-piperazin-1-yl)-9H-10-oxa-2,4-diaza-phenanthren-3-ylamine], the Potency stood at 50 nM.

The compound `Nc1nc2c(c(N3CC4CCCNC4C3)n1)CCSc1ccccc1-2` (stereo not drawn) [Example 96, 4-(Octahydro-pyrrolo[3,4-b]pyridin-6-yl)-5,6-dihydro-7-thia-1,3-diaza-dibenzo[a,c]cyclohepten-2-ylamine] showed a Potency of 19 nM.

The compound `CN[C@@H]1CCN(c2nc(N)nc3c2CCOc2ccc(Cl)cc2-3)C1` [Example 45, 10-chloro-4-[(3R)-3-(methylamino)pyrrolidin-1-yl]-5,6-dihydro[1]benzoxepino[5,4-d]pyrimidin-2-amine] registered a Potency of 69 nM.

`Nc1nc2c(c(N3CC[C@@H](N)C3)n1)CCCCc1ccccc1-2` [Example 55, 4-[(3R)-3-aminopyrrolidin-1-yl]-5,6,7,8-tetrahydrobenzo[7,8]cycloocta[1,2-d]pyrimidin-2-amine] showed a Potency of 123 nM.

Consider `CN[C@@H]1CCN(c2nc(N)nc3c2CCOc2cc(I)ccc2-3)C1` [Example 100, 9-Iodo-4-((R)-3-methylamino-pyrrolidin-1-yl)-5,6-dihydro-7-oxa-1,3-diaza-dibenzo[a,c]cyclohepten-2-ylamine], for which the Potency is 120 nM.

`Nc1nc2c(c(N3CC(N)C3)n1)CCCCc1ccccc1-2` [Example 57, 4-(3-aminoazetidin-1-yl)-5,6,7,8-tetrahydrobenzo[7,8]cycloocta[1,2-d]pyrimidin-2-amine] gave a Potency of 562 nM.

`Nc1nc(NCCCN2CCCCC2)c2c(n1)-c1ccccc1CCC2` [Example 113, N^4-(3-Piperidin-1-yl-propyl)-6,7-dihydro-5H-benzo[6,7]cyclohepta[1,2-d]pyrimidine-2,4-diamine] returned a Potency of 4266 nM.

The compound `CN1CC[C@H](Oc2nc(N)nc3c2CCCc2ccccc2-3)C1` [Example 71, 4-((S)-1-Methyl-pyrrolidin-3-yloxy)-6,7-dihydro-5H-benzo[6,7]cyclohepta[1,2-d]pyrimidin-2-ylamine] gave a Potency of 263 nM.

On to `CNc1ccc2c(c1)-c1nc(N)nc(N3C[C@H]4CCCN[C@H]4C3)c1CCC2` [Example 131, 10-N-methyl-4-[(4aR,7aR)-octahydro-6H-pyrrolo[3,4-b]pyridin-6-yl]-6,7-dihydro-5H-benzo[6,7]cyclohepta[1,2-d]pyrimidine-2,10-diamine], for which the Potency is on record as 113 nM.

For `CC1CCN(c2nc(N)nc3c2CCCc2ccccc2-3)CCN1` (stereo not drawn) [Example 67, 4-(5-methyl-1,4-diazepan-1-yl)-6,7-dihydro-5H-benzo[6,7]cyclohepta[1,2-d]pyrimidin-2-amine], the Potency is given as 69 nM.

`CNC1CN(c2nc(N)nc3c2CCc2ccccc2-3)C1` [Example 40, 4-(3-Methylamino-azetidin-1-yl)-5,6-dihydro-benzo[h]quinazolin-2-ylamine] returned a Potency of 34 nM.

On to `Nc1nc2c(c(N3CC4CCCNC4C3)n1)CCOc1cc(I)ccc1-2` (stereo not drawn) [Example 102, 9-Iodo-4-octahydro-pyrrolo[3,4-b]pyridin-6-yl-5,6-dihydro-7-oxa-1,3-diaza-dibenzo[a,c]cyclohepten-2-ylamine], for which the Potency stood at 45 nM.

In the case of `Nc1nc2c(c(N3CCC(N)CC3)n1)CCCc1ccccc1-2` [Example 62, 4-(4-aminopiperidin-1-yl)-6,7-dihydro-5H-benzo[6,7]cyclohepta[1,2-d]pyrimidin-2-amine], the Potency was 389 nM.

Consider `CN[C@@H]1CCN(c2nc(N)nc3c2CCOc2ccccc2-3)C1` [Example 31, 4-((R)-3-Methylamino-pyrrolidin-1-yl)-5,6-dihydro-7-oxa-1,3-diaza-dibenzo[a,c]cyclohepten-2-ylamine], for which the Potency is given as 27 nM.

In turn, “4-(4-Dimethylamino-piperidin-1-yl)-6,7-dihydro-5H-benzo[6,7]cyclohepta[1,2-d]pyrimidin-2-ylamine [Example 114]” came in with a Potency of 17 nM.
